According to patent EP0569598A1, “BENZOXAZINONE DERIVATIVE” (JAPAN TOBACCO INC., priority 1991, dated 1993):

target: T1, human leukocyte elastase (HLE) (Homo sapiens, UniProt P08246); assay: HLE inhibitory activity (synthetic substrate, pNA release, absorbance 405 nm); format: biochemical; settings: pH 8.6; HLE 5.63 nM, substrate 0.2625 mM; 37°C; read-out: IC₅₀ value HLE
T1 construct: the mixed solution was subjected to density gradient centrifugation, thereby obtaining neutrophiles; from tissue; host or cells: neutrophils from human vein blood (buffy coat)
T1 sequence (P08246 30-247 limits assumed): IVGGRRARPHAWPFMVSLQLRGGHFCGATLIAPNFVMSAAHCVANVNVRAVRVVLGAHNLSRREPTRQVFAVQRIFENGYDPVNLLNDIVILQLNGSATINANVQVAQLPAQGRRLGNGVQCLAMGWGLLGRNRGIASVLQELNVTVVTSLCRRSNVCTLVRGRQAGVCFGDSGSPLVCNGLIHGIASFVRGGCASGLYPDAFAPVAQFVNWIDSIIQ
Description: Activities of the Benzoxazine derivatives of the present invention against human leukocyte elastase (HLE), human sputum elastase (HSE), human cathepsin G (HCG), bovine pancreatic α-chmotrypsin (CYT) and bovine pancreatic trypsin (TRY) were measured by the following method.
A buffy coat was obtained by subjecting human vein blood to centrifugation. To the buffy coat was added distilled water to make a hypotonic solution, thereby bursting erythrocytes. To the residual blood cell component was added a 33.4% of Conrey 400 solution/9% Ficoll solution (the ratio of the former solution to the latter solution is 10:24), and the mixed solution was subjected to density gradient centrifugation, thereby obtaining neutrophiles. The neutrophile fraction was washed with Hanks' buffer for three times and then cells were recovered and cryopreserved at -80°C until use. The cryopreserved-cells were thawed with warm water at 37°C and suspended in a 9-fold volume of lysis buffer containing 0.1M Tris-HCl (pH7.5), 1M MgCl₂ and 0.1% Brij 35. The suspended cells are destroyed by means of polotoron with ice-cooling. The cell suspension was subjected to centrifugation at 100,000 x g for 1 hour. After removing precipitates, 2-fold volume of a Tris-HCl buffer containing 5 mM Tris-HCl(pH 7.5), 1M NaCl and 1.1% Brij 35 was added to the supernatant, thereby obtaining a crude solution of an enzyme extract. The crude solution was subjected to aprotinine affinity column and extracted with an elution buffer containing […] of glycine-HCl (pH 3.3), 1M NaCl and 0.1% Brij 35, thereby obtaining an active fraction. The obtained active fraction was further subjected to MONO S-ion-exchange chromatography and eluted with 2M NaCl linear gradient. The obtained fraction was dialyzed against 25 mM Tris-HCl (pH8.6) and lyophilized, thereby obtained an enzyme sample.
A test compound was dissolved in DMSO (for fluorometry) and prepared various concentration of the solution. To each concentration was added 2-fold volume of 0.2M Tris-HCl (pH8.6), thereby obtaining a test solution. Synthetic substrate (Funakoshi, L-1335) was dissolved in DMSO and 2-volume of 0.2M Tris-HCl (pH8.6) was added thereto, thereby obtaining a substrate solution. The reaction was performed using a microplate having 96 wells (Nunk). Six-time reactions were repeated for each concentration. One handred and forty µl of an enzyme solution containing 0.2M Tris-HCl (pH8.6), 30 µl of a test solution and 30 µl of a substrate solution per well of the microplate were respectively pre-incubated at 37°C for 10 minutes. After completion of the incubation, the enzyme solution was mixed with the test sample and incubated for 10 minutes and then the substrate solution was added to perform an enzyme reaction. The absorbance of released P-nitroanilide (PNA) was measured at the wave length of 405 nm by means of a microplate reader (MTP-100; CORONA), thereby determining the substrate decomposition. The rate of the substrate decomposition was shown as an average value of 6 repeated reactions. The inhibitory concentration of a test compound relative to the amount of the substrate decomposition in the reaction mixture without a test compound was regarded as an IC₅₀ value. The final concentration of HLE and a synthesized substrate in the reaction mixture were 5.63 nM and 0.2625 mM, respectively.

IC50	Compound
790 nM	Cc1cccc2nc([C@@H](NC(=O)CN(c3ccccc3)c3ccccc3)C(C)C)oc(=O)c12 [Compound 7, 2-{1(S)-[(N,N-diphenyl-glycyl)amino]-2-methylpropyl}-5-methyl-4H-3,1-benzoxazin-4-one]
400 nM	Cc1cccc2nc([C@@H](NC(=O)CCC(c3ccccc3)c3ccccc3)C(C)C)oc(=O)c12 [Compound 8, 2-{1(S)-[(4,4-diphenylbutyryl)amino]-2-methylpropyl}-5-methyl-4H-3,1-benzoxazin-4-one]
550 nM	Cc1cccc2nc([C@@H](NC(=O)CON=C(c3ccccc3)c3ccccn3)C(C)C)oc(=O)c12 [Compound 9, 5-Methyl-2-[2-methyl-1(S)-[[[[[phenyl(2-pyridyl)methylene]amino]oxy]acetyl]amino]propyl]-4H-3,1-benzoxazin-4-one]
550 nM	Cc1cccc2nc([C@@H](NC(=O)COC(c3ccccn3)c3ccccn3)C(C)C)oc(=O)c12 [Compound 4]
